Source: patent US6469052B2, “Compounds for the photodecontamination of pathogens in blood” (Cerus Corporation, priority 1993, dated 2002)

Columns and labels:
Pseudomonus = experiment: Bacterial inactivation (colony forming units); type: cell-based; conditions: 16 μM, after 5 J/cm^2 irradiation, starting titer 6.5 logs, 15% FBS in DMEM
Protocol: In this example bacterial inactivation by the photoreactive nucleic acid binding compounds of the present invention was measured as a function of the ability of the bacteria to subsequently replicate. A gram negative bacteria was chosen as representative of the more difficult bacterial strains to inactivate.
The bacteria, a strain of Pseudomonus, was innoculated into LB with a sterile loop and grown overnight in a shaker at 37° C. Based on the approximation that one OD at 610 nm is equivalent to 5×10^8 colony forming units (cfu)/mL, a 1:10 dilution of the culture was measured on a spectrophotometer, (manufactured by Shimatsu). The bacterial culture was added to a solution of 15% fetal bovine serum in DMEM to a final bacteria concentration of approximately 10^6/mL. An aliquot (0.8 mL) was transferred to a 1.5 mL snap-top polyethylene tube. An aliquot (0.004-0.040 mL) of the test compound stock solution prepared in water, ethanol or dimethylsulfoxide at 0.80-8.0 mM was added to the tube. Compounds were tested at a concentration of 16 μM. The tubes were placed in a light device as described in EXAMPLE 1 and irradiated with 1.3 J/cm^2, 1.2 J/cm^2, and finally 2.5 J/cm^2, for a total of 5 J/cm^2. […] The colony forming units were then counted the following morning and the titer of the […] remaining after phototreatment was calculated based on the dilution factors. […]

[1] = tested on: Salmonella typhimurium TA98; experiment: Ames assay (dark mutagenicity), strain TA98
Source text: (§1) The second property that is important in testing a compound for use in methods of the present invention is mutagenicity. The most widely used mutagen/carcinogen screening assay is the Ames test. This assay is described by D. M. Maron and B. N. Ames in Mutation Research 113: 173 ( 1983) and a specific screen is described in detail in Example 17, below. The Ames test utilizes several unique strains of Salmonella typhimurium that are histidine- dependent for growth and that lack the usual DNA repair enzymes. The frequency of normal mutations that render the bacteria independent of histidine (i.e., the frequency of spontaneous revertants) is low. The test allows one to evaluate the impact of a compound on this revertant frequency.
(§2) In this example the compounds of the present invention are tested for their dark mutagenicity using an Ames assay. The procedures used for the Salmonella mutagenicity test as described in detail by Maron and Ames were followed exactly. Maron, D. M. and B. N. Ames, Mutation Research 113: 173 ( 1983). A brief description for each procedure is given here. The tester strains TA97a, TA98, TA100, TA102, TA1537 and TA1538 were obtained from Dr. Ames. TA97a, TA98, TA1537 and TA1538 are frameshift tester strains. TA100 and TA102 are base-substitution tester strains. Upon receipt each strain was cultured under a variety of conditions to confirm the genotypes specific to the strains.
(§3) The first tests done with the strains were to determine the range of spontaneous reversion for each of the strains. With each mutagenicity experiment the spontaneous reversion of the tester strains to histidine independence was measured and expressed as the number of spontaneous revertants per plate. This served as the background controls.
(§4) For all experiments, the pre-incubation procedure was used. In this procedure one vial of each tester strain was thawed and 20 μL of this culture was added to 6 mL of Oxoid Nutrient Broth #2. This solution was allowed to shake for 10 hours at 37° C. In the pre-incubation procedure, 0.1 mL of this overnight culture was added to each of the required number of sterile test tubes. To half of the tubes 0.5 mL of a 10% S-9 solution containing Aroclor 1254 induced rat liver extract (Molecular Toxicology Inc., Annapolis, Md.), and MgCl2, KCl, glucose-6-phosphate, NADP, and sodium phosphate buffer (Sigma, St. Louis, Mo.) were added. To the other half of the tubes 0.5 mL of 0.2M sodium phospate buffer, pH 7.4, was used in place of the S-9 mixture (the -S9 samples). Finally 0.1 mL of the test solution containing either 0, 0.1, 0.5, 1, 5, 10, 50, 100, 250, or 500 μg/mL of the test compound was added. The 0.7 mL mixture was vortexed and then pre-incubated while shaking for 20 minutes at 37° C. After shaking, 2 mL of molten top agar supplemented with histidine and biotin were added to the 0.7 mL mixture and immediately poured onto a minimal glucose agar plate (volume of base agar was 20 mL). The top agar was allowed 30 minutes to solidify and then the plates were inverted and incubated for 44 hours at 37° C. After incubation the number of revertant colonies on each plate were counted. […] (“n” represents the number of replicates performed for each data point.)
(§5) Maron and Ames (1983) describe the conflicting views with regard to the statisical treatment of data generated from the test.

[2] = tested on: Salmonella typhimurium TA1538; experiment: Ames assay (dark mutagenicity), strain TA1538
Source text: as §1, §2, §3, §4, §5

SMILES | log kill of bacteria (Pseudomonus) | revertants per plate ([1]; TA98 +S9, 10 μg/plate) | revertants per plate ([1]; TA98 +S9, 50 μg/plate) | revertants per plate ([1]; TA98 +S9, 100 μg/plate) | revertants per plate ([1]; TA98 +S9, 250 μg/plate) | revertants per plate ([1]; TA98 +S9, 500 μg/plate) | revertants per plate ([1]; TA98 −S9, 10 μg/plate) | revertants per plate ([1]; TA98 −S9, 50 μg/plate) | revertants per plate ([1]; TA98 −S9, 100 μg/plate) | revertants per plate ([1]; TA98 −S9, 250 μg/plate) | revertants per plate ([1]; TA98 −S9, 500 μg/plate) | revertants per plate ([2]; TA1538 −S9, 5 μg/plate) | revertants per plate ([2]; TA1538 −S9, 10 μg/plate)
Cc1oc2c(C)c3oc(=O)cc(C)c3cc2c1COCCN [Compound 2, 4′-(4-amino-2-oxa)butyl-4,5′,8-trimethylpsoralen] | > 5.5 logs | 24 | 35 | 53 | 69 | 63 | 28 | 52 | 39 | 29 | 6 | −8 | −13
Cc1oc2c(C)c3oc(=O)cc(C)c3cc2c1CNCCCCN [Compound 6, 4′-(6-amino-2-aza)hexyl-4,5′,8-trimethylpsoralen] | > 5.5 logs |  |  |  |  |  | 12 | 12 | 22 | 12 | 9 | −5 | −2
